# Test: pH / titration curve of 4% diclofenac sodium in water
# Assay type: physicochemical
smiles,measurement,setting,value
"O=C(O)Cc1ccccc1Nc1c(Cl)cccc1Cl [diclofenac, 2-[2-(2,6-dichloroanilino)phenyl]acetic acid]",pH of diclofenac in water,4% diclofenac sodium in water,around 7.8
same,buffering capacity to adjust the pH by 1 unit,strong acid or base,0.625 mMoles

# Reference: US20260232574A1, “COMPOSITIONS AND METHODS FOR TREATING DYSMENORRHEA” (Daré Bioscience, Inc., priority 2023, published 2026)
